The values below come from patent US9067924B2, “1,4 thiazepines/sulfones as BACE1 and/or BACE2 inhibitors” (HOFFMANN-LA ROCHE INC., priority 2011, dated 2015).

One assay has as its target BACE2 (Rattus norvegicus (Rat), UniProt Q6IE75). Kind of assay: Assay for BACE inhibition by measuring cellular TMEM27 cleavage. Type of assay: cell-based. The settings on record: INS-TMEM27 (INS1e-derived) cells, shed hTMEM27 by ELISA. From the text: Assay for BACE Inhibition by Measuring Cellular TMEM27 Cleavage:
The assay uses the principle of inhibition of human TMEM27 cleavage by endogenous cellular BACE2 in the Ins1e rat cell line and shedding from the cell surface into the culture medium, followed by detection in an ELISA assay Inhibition of BACE2 prevents the cleavage and shedding in a dose-dependent manner.
The stable cell line “INS-TMEM27” represents an INS1e-derived cell line with inducible expression (using the TetOn system) of full-length hTMEM27 in a doxycycline-dependent manner. The cells are cultured throughout the experiment in RPMI1640+Glutamax (Invitrogen) Penicillin/Streptomycin, 10% Fetal bovine serum, […], […], 100 micrograms/ml G418 and 100 microgram/ml hygromycin and are grown inadherent culture at 37° C. in a standard CO2 cell culture incubator.
INS-TMEM27 cells are seeded in 96-well plates. After 2 days in culture, BACE2 inhibitor is added in a range of concentrations as required by the assay and after a further two hours, doxycycline is added to a final concentration of 500 ng/ml. The cells are incubated for a further 46 hours and the supernatant harvested for detection of shed TMEM27.
An ELISA assay (using a pair of mouse anti-human-TMEM27 antibodies, raised against the extracellular domain of TMEM27) is used for detection of TMEM27 in the culture medium. An EC50 for BACE2 inhibition is calculated using the ELISA readout for each inhibitor concentration with standard curve-fitting software such as XLFit for the Excel spreadsheet program.
For orientation: In an ELISA, binding on a coated surface is turned into a signal by an enzyme label.

The next assay addresses BACE1 (Homo sapiens (Human), UniProt P56817). The experiment in a line: Cellular Aβ-lowering assay. In kind it is cell-based. Conditions: HEK293 cells expressing human APP695, Aβ40 in supernatant by ELISA. The method, then: Cellular Aβ-Lowering Assay:
Human HEK293 cells which are stably transfected with a vector expressing a cDNA of the human APP wt gene (APP695) were used to assess the potency of the compounds in a cellular assay. The cells were seeded in 96-well microtiter plates in cell culture medium (Iscove, plus 10% (v/v) fetal bovine serum, glutamine, penicillin/streptomycin) to about 80% confluence and the compounds were added at a 10× concentration in 1/10 volume of medium without FCS containing 8% DMSO (final concentration of DMSO was kept at 0.8% v/v). After 18-20 hrs incubation at 37° C. and 5% CO2 in a humidified incubator the culture supernatant was harvested for the determination of Aβ40 concentrations. 96 well ELISA plates (e.g., Nunc MaxiSorb) were coated with monoclonal antibody which specifically recognize the C-terminal end of Aβ40 (Brockhaus et al., NeuroReport 9, 1481-1486; 1998). After blocking of non-specific binding sites with e.g. 1% BSA and washing, the culture supernatants were added in suitable dilutions together with a horseradish peroxidase-coupled Aβ detection antibody (e.g., antibody 4G8, Senetek, Maryland Heights, Mo.) and incubated for 5 to 7 hrs. Subsequently the wells of the microtiter plate were washed extensively with Tris-buffered saline containing 0.05% Tween 20 and the assay was developed with tetramethylbenzidine/H2O2 in citric acid buffer. After stopping the reaction with one volume 1 N H2SO4 the reaction was measured in an ELISA reader at 450 nm wavelength. The concentrations of Aβ in the culture supernatants were calculated from a standard curve obtained with known amounts of pure Aβ peptide.

Chain of BACE2 (Q6IE75 63-514): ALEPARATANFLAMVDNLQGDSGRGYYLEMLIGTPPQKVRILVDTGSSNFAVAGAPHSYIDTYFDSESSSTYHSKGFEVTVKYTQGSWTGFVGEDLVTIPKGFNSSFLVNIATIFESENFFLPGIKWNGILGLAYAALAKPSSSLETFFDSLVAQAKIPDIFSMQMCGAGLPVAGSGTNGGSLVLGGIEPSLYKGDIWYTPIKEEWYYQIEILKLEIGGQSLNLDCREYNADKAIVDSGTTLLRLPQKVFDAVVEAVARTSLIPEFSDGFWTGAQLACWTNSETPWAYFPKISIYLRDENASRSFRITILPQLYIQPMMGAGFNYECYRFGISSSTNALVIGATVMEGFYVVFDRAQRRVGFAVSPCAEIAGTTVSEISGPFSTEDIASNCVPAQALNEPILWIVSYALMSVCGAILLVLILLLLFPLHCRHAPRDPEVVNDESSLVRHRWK
Chain of BACE1 (P56817 46-501): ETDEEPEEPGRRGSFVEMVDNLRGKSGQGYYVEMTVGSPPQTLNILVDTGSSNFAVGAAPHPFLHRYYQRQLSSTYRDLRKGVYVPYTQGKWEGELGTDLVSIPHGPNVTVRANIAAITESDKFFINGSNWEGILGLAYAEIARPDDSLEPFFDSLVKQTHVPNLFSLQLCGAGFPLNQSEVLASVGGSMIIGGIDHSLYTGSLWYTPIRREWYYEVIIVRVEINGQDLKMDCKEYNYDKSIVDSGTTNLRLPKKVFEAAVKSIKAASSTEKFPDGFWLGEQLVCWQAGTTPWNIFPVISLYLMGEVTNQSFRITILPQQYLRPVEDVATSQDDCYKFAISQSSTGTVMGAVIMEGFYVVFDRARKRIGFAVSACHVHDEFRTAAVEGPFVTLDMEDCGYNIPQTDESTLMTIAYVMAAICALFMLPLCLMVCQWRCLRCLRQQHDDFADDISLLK

Broadly, the IC50 is the midpoint of a concentration-inhibition curve. Read a low IC50 as greater potency. As for `CC1SCC[C@@](C)(c2cc(NC(=O)c3ccc(F)cn3)ccc2F)N=C1N` (stereo in doubt) [Example 5, 5-Fluoro-pyridine-2-carboxylic acid [3-((S)-3-amino-2,5-dimethyl-2,5,6,7-tetrahydro-[1,4]thiazepin-5-yl)-4-fluoro-phenyl]-amide], the values for the half-maximal inhibitory concentration (IC50) at BACE2 and against BACE1 were 21 nM and 170 nM, respectively. On the same counts, the results for `CC1C(N)=N[C@](C)(c2cc(NC(=O)c3ccc(F)cn3)ccc2F)CCS1(=O)=O` (stereo in doubt) [Example 7, 5-Fluoro-pyridine-2-carboxylic acid [3-((S)-3-amino-2,5-dimethyl-1,1-dioxo-2,5,6,7-tetrahydro-1H-1λ^6-[1,4]thiazepin-5-yl)-4-fluoro-phenyl]-amide] are 2 nM and 4 nM. On the same counts, the results for `CC1(C)C(N)=N[C@](C)(c2cc(NC(=O)c3ccc(F)cn3)ccc2F)CCS1(=O)=O` [Example 10, 5-Fluoro-pyridine-2-carboxylic acid [3-((S)-3-amino-2,2,5-trimethyl-1,1-dioxo-2,5,6,7-tetrahydro-1H-1λ^6-[1,4]thiazepin-5-yl)-4-fluoro-phenyl]-amide] are 181 nM and 62 nM. On the same counts, the results for `C[C@@]1(c2cc(NC(=O)c3ccc(Cl)cn3)ccc2F)CCS(=O)(=O)CC(N)=N1` [Example 3, 5-Chloro-pyridine-2-carboxylic acid [3-((S)-3-amino-5-methyl-1,1-dioxo-2,5,6,7-tetrahydro-1H-1λ^6-[1,4]thiazepin-5-yl)-4-fluoro-phenyl]-amide] are 5 nM and 3 nM. As for `CC1C(N)=N[C@](C)(c2cc(NC(=O)c3ccc(Cl)cn3)ccc2F)CCS1(=O)=O` (stereo partly drawn) [Example 8, 5-Chloro-pyridine-2-carboxylic acid [3-((S)-3-amino-2,5-dimethyl-1,1-dioxo-2,5,6,7-tetrahydro-4H-1λ^6-[1,4]thiazepin-5-yl)-4-fluoro-phenyl]-amide], the IC50 against BACE2 is 16 nM; at BACE1 it was 30 nM.

Take `C[C@]1(c2cc(NC(=O)c3ccc(C#N)cn3)ccc2F)N=C(N)CS(=O)(=O)[C@H]2COC[C@@H]21` (relative stereo) [Example 14, 5-Cyano-pyridine-2-carboxylic acid [3-((3aR,8S,8aS)-rel-6-amino-8-methyl-4,4-dioxo-3,3a,4,5,8,8a-hexahydro-1H-2-oxa-4λ^6-thia-7-aza-azulen-8-yl)-4-fluoro-phenyl]-amide]: the IC50 on BACE1 was 78 nM.

For `C[C@@]1(c2cc(NC(=O)c3ccc(Cl)cn3)ccc2F)CCSCC(N)=N1` [Example 1, 5-Chloro-pyridine-2-carboxylic acid [3-((S)-3-amino-5-methyl-2,5,6,7-tetrahydro-[1,4]thiazepin-5-yl)-4-fluoro-phenyl]-amide], the 50% inhibitory concentration (IC50) on BACE2 was 167 nM; against BACE1 it was 6.3 nM.

As for `C[C@@]1(c2cc(NC(=O)c3ccc(F)cn3)ccc2F)CCSCC(N)=N1` [Example 2, 5-Fluoro-pyridine-2-carboxylic acid [3-((S)-3-amino-5-methyl-2,5,6,7-tetrahydro-[1,4]thiazepin-5-yl)-4-fluoro-phenyl]-amide], the IC50 against BACE2 amounted to 79 nM; against BACE1 it was 16 nM. With `CC1C(N)=N[C@](C)(c2cc(NC(=O)c3[nH]ncc3Cl)ccc2F)CCS1(=O)=O` (stereo in doubt) [Example 9, 4-Chloro-2H-pyrazole-3-carboxylic acid [3-((S)-3-amino-2,5-dimethyl-1,1-dioxo-2,5,6,7-tetrahydro-1H-1λ^6-[1,4]thiazepin-5-yl)-4-fluoro-phenyl]-amide], the concentration for half-maximal inhibition (IC50) against BACE2 came to 858 nM; at BACE1, 300 nM.

Turning to `CC1(C)C(N)=N[C@](C)(c2cc(NC(=O)c3ccc(C#N)cn3)ccc2F)CCS1(=O)=O` [Example 12, 5-Cyano-pyridine-2-carboxylic acid [3-((S)-3-amino-2,2,5-trimethyl-1,1-dioxo-2,5,6,7-tetrahydro-1H-1λ^6-[1,4]thiazepin-5-yl)-4-fluoro-phenyl]-amide], at BACE1, inhibition was half-maximal at 53 nM (IC50). With `CC1SCC[C@@](C)(c2cc(NC(=O)c3ccc(Cl)cn3)ccc2F)N=C1N` (stereo in doubt) [Example 6, 5-Chloro-pyridine-2-carboxylic acid [3-((S)-3-amino-2,5-dimethyl-2,5,6,7-tetrahydro-[1,4]thiazepin-5-yl)-4-fluoro-phenyl]-amide], the IC50 on BACE2 amounted to 9 nM; on BACE1, 140 nM. For `N#Cc1ccc(C(=O)Nc2ccc(F)c([C@]3(C(F)F)CCS(=O)(=O)CC(N)=N3)c2)nc1` [Example 13, 5-Cyano-pyridine-2-carboxylic acid [3-((S)-3-amino-5-difluoromethyl-1,1-dioxo-2,5,6,7-tetrahydro-1H-1λ^6-[1,4]thiazepin-5-yl)-4-fluoro-phenyl]-amide], inhibition against BACE1 was half-maximal at 260 nM (IC50). Same read-out and setting: with `CC1(C)C(N)=N[C@](C)(c2cc(NC(=O)c3[nH]ncc3Cl)ccc2F)CCS1(=O)=O` [Example 11, 4-Chloro-2H-pyrazole-3-carboxylic acid [3-((S)-3-amino-2,2,5-trimethyl-1,1-dioxo-2,5,6,7-tetrahydro-1H-1λ^6-[1,4]thiazepin-5-yl)-4-fluoro-phenyl]-amide] the figure was 2290 nM. On to `C[C@@]1(c2cc(NC(=O)c3ccc(F)cn3)ccc2F)CCS(=O)(=O)CC(N)=N1` [Example 4, 5-Fluoro-pyridine-2-carboxylic acid [3-((S)-3-amino-5-methyl-1,1-dioxo-2,5,6,7-tetrahydro-1H-1λ^6-[1,4]thiazepin-5-yl)-4-fluoro-phenyl]amide], for which the IC50 at BACE2 was found to be 4 nM; on BACE1, 20 nM.
